Assay results taken from patent publication US20040191297A1, “Carotenoid formulation” (priority 1997, published 2004).
Where “and” joins values, the source holds several entries; their conditions need not be identical. Identical values can stand only once.

Assays:
[1] = Concentration of lycopene in rat lung; format: in vivo, Fischer 344 rats
Procedure: Extraction of lycopene from diet was as follows: A sample of diet containing lycopene was suspended in the injection solvent (Table 4) and homogenized in a polytron homogenizer. Echinenone was added as an internal standard and the mixture centrifuged at 3000 rpm at 4° C. for 15 minutes. The supernatant was decanted and saved and the extraction repeated. The pooled extracts were then dried under N2 gas at 60° C. and the residue dissolved in 0.5 ml injection solvent and then subjected to HPLC analysis. The same method, with minor variations, was used for feces and for lung tissue. The efficiency of lycopene extraction from the diet is shown in Table 6 A&B. At any concentration tested the efficiency ranged from 75% at the highest concentration to 100% for the lowest concentration of lycopene.
homogenized. […] This hexane extraction procedure was repeated 5-7 times.

[2] = test system: α-tocopherol; assay: Liver vitamin E assay; format: in vivo, Fischer 344 rats
[3] = female rat, Group 1, 1280 in diet
[4] = female rat, Group 2, 512 in diet
[5] = female rat, Group 3, 256 in diet
[6] = female rat, Group 4, 128 in diet
[7] = female rat, Group 5, 51 in diet
[8] = male rat, Group 1, 1280 in diet

## CC(C)=CCC/C(C)=C/C=C/C(C)=C/C=C/C(C)=C/C=C/C=C(C)/C=C/C=C(C)/C=C/C=C(\C)CCC=C(C)C [Lycopene]
[1]; [3]
  Concentration of lycopene in lung, average: 227 ngs/gm
  Concentration of lycopene in lung, individual: 184 ngs/gm and 270 ngs/gm
[1]; [4]
  Concentration of lycopene in lung, average: 246 ngs/gm
  Concentration of lycopene in lung, individual: 211 ngs/gm and 280 ngs/gm
[1]; [5]
  Concentration of lycopene in lung, average: 193 ngs/gm
  Concentration of lycopene in lung, individual: 243 ngs/gm and 142 ngs/gm
[1]; [6]
  Concentration of lycopene in lung, average: 211 ngs/gm
  Concentration of lycopene in lung, individual: 208 ngs/gm and 214 ngs/gm
[1]; [7]
  Concentration of lycopene in lung, average: 134 ngs/gm
  Concentration of lycopene in lung, individual: 144 ngs/gm and 124 ngs/gm
[1]; [8]
  Concentration of lycopene in lung, average: 190 ngs/g
  Concentration of lycopene in lung, individual: 193 ngs/g and 187 ngs/g
[1]; male rat, Group 2, 512 in diet
  Concentration of lycopene in lung, average: 214 ngs/g
  Concentration of lycopene in lung, individual: 170 ngs/g and 257 ngs/g
[1]; male rat, Group 3, 256 in diet
  Concentration of lycopene in lung, average: 375 ngs/g
  Concentration of lycopene in lung, individual: 325 ngs/g and 424 ngs/g
[1]; male rat, Group 4, 128 in diet
  Concentration of lycopene in lung, average: 201 ngs/g
  Concentration of lycopene in lung, individual: 239 ngs/g and 162 ngs/g
[1]; male rat, Group 5, 51 in diet
  Concentration of lycopene in lung, average: 151 ngs/g
  Concentration of lycopene in lung, individual: 167 ngs/g and 135 ngs/g
[2]; female, Group 2, lycopene 512 mg/kg diet
  Liver α-tocopherol: 38 μg/gm
[2]; male, Group 7, lycopene 1280 mg/kg diet
  Liver α-tocopherol: 28 μg/gm
[2]; male, Group 8, lycopene 512 mg/kg diet
  Liver α-tocopherol: 8 μg/gm
[2]; male, Group 9, lycopene 256 mg/kg diet
  Liver α-tocopherol: 23 μg/gm
[2]; male, Group 11, lycopene 51 mg/kg diet
  Liver α-tocopherol: 14 μg/gm
